Laboratory results from patent US8105833B2, “Method for forming organ” (Research Foundation Itsuu Laboratory, priority 2003, dated 2012).

What was measured:
[1] = test system: embryoid bodies from ES cells (E14 cells or B6 cells); assay: Formation of heart (autonomically beating cardiac muscle-like cell aggregates) from embryoid bodies using RXR ligand; format: cell-based, mouse; set-up: frequency of appearance of autonomically beating cardiac muscle-like cell aggregates: dose or concentration left out as unconfirmed
Procedure: (§1) As ES cells, E 14 cells of the 29 mouse strain (ATCC #: CRL-1821) or B6 cells of the C57BL mouse strain (ATCC #: SCRC-1002) were used. Mouse fetal fibroblasts prepared from a mouse embryo on the 13th day were inoculated on a 0.1% gelatin-coated culture dish, and cultured in a medium containing 12% fetal bovine serum (Gibco), 100 U/ml penicillin (Sigma) and 100 μg/ml streptomycin (Sigma) for 24 hours. These cells were treated with 10 μg/ml mytomicin C (MMC, Sigma) for four hours to inhibit cell division and then washed twice with phosphate-buffered saline (PBS) to remove MMC. The ES cells were inoculated on these fibroblasts (feeder). As the medium for the ES cells, D-MEM (high glucose, Gibco) containing 15% fetal bovine serum for ES (Gibco), 2 mM L-glutamine (Gibco), MEM non-essential amino acid (Sigma), 1 mM sodium pyruvate (Gibco), 0.0007% β-mercaptoethanol (Sigma), 1000 U/ml Leukemia inhibiting factor (Chemicon), 100 U/ml penicillin (Sigma) and 100 μg/ml streptomycin (Sigma) was used, and the cells were cultured in a CO2 incubator (5% CO2, 100% humidity) at 37° C. The medium was exchanged every day.
(§2) Subculture was performed 72 hours after the inoculation of the ES cells. MMC-treated feeder cells (mouse fetus fibroblasts) were inoculated on a gelatin-coated culture dish, and after 24 hours, the ES cells completely dissociated by a treatment with 0.05% trypsin-0.02% EDTA were inoculated to allow formation of colonies (see, FIG. 1). The ES cells were cultured for three days after the inoculation to allow formation of colonies, and a colony was isolated by pipetting and then inoculated on a culture dish for bacteria with an extremely low cell attachment property. As the medium, D-MEM (high glucose) containing 15% Knockout SR (KSR, Gibco), 100 U/ml penicillin and 100 μg/ml streptomycin was used. The cells were further cultured for three days under this condition to prepare embryoid bodies (FIG. 2). […]

[2] = test system: animal cap cells (pluripotent cell aggregates) at the blastula stage; settings: activin at a high concentration; cited from earlier work
[3] = test system: embryoid bodies from ES cells; assay: Formation of adipocytes from embryoid bodies using RXR ligand; format: cell-based, mouse; set-up: adipocytes formed in comparison with the control group (all-trans retinoic acid): dose or concentration left out as unconfirmed
Procedure: as §1, §2

[4] = test system: embryoid bodies from ES cells; assay: Formation of smooth muscle-like cells from embryoid bodies using RXR ligand; format: cell-based, mouse; settings: 1×10^−5 to 2×10^−6 M PA024, then further cultured
Procedure: as §1
Subculture was performed 72 hours after the inoculation of the ES cells. […]

CC1=C(/C=C/C(C)=C/C=C/C(C)=C/C(=O)O)C(C)(C)CCC1 [all-trans retinoic acid]
differentiation of cardiac muscle-like cells ([1]; control group treated with 1×10^−5 M, over two weeks after the treatment): almost no differentiation

activin
formation rate of rhythmically beating heart [2]: 60%

CC1(C)CCC(C)(C)c2cc(N(CC3CC3)c3ncc(C(=O)O)cn3)ccc21 [PA024, 2-[N-cyclopropylmethyl-N-(5,6,7,8-tetrahydro-5,5,8,8-tetramethylnaphthalen-2-yl)amino]pyrimidine-5-carboxylic acid]
formation of cardiac muscle-like cell aggregates ([1]; 2×10−6 M PA024): 0.5 cell aggregate per embryoid body
frequency of appearance of autonomically beating cardiac muscle-like cell aggregates ([1]; PA024, cultured for 2 days): 0.2 cell aggregate per embryoid body
time of appearance of adipocytes ([3]; 1×10^−5 to 2×10^−6 M PA024): about two
adipocyte formation in terms of the value per embryoid body ([3]; 1×10^−5 to 2×10^−6 M PA024, culture continued for 20 days): ~100%
adipocytes formed in comparison with the control group (all-trans retinoic acid) ([3]; PA024 treated group versus all-trans retinoic acid control): two or three times more
time of formation of smooth muscle-like cells [4]: one to two
